Laboratory results reported in US20260256792A1, “TREATMENT OF CHRONIC SPONTANEOUS URTICARIA BY ADMINISTERING (R)-2-[3-[4-AMINO-3-(2-FLUORO-4-PHENOXY-PHENYL)PYRAZOLO[3,4-D]PYRIMIDIN-1-YL]PIPERIDINE-1-CARBONYL]-4-METHYL-4-[4-(OXETAN-3-YL)PIPERAZIN-1-YL]PENT-2-ENENITRILE” (priority 2023, published 2026).

System: moderate-to-severe chronic spontaneous urticaria (CSU)
Experiment: Phase 2 CSU study: itch severity score over 7 days (ISS7)
Type: in vivo, human
Conditions: for Non-responder n (%) (ISS7 reduction of 5 points or more) / OR for rilzabrutinib vs. placebo (ISS7 reduction of 5 points or more) / RRD (%) for rilzabrutinib vs. placebo (ISS7 reduction of 5 points or more) / Responder n (%) (ISS7 reduction of 5 points or more) / Imputed non-responder n (%) (ISS7 reduction of 5 points or more): ITT population
Text: The study comprises a 12 week, randomized, double-blind, placebo-controlled, multi-center, dose-ranging efficacy and safety phase, followed by a 40 week open label extension (OLE) phase (see FIG. 1). The study consists of three phases and an optional OLE phase. […] Clinically, CSU is characterized by the spontaneous and recurrent appearance of pruritic hives. The proposed primary endpoints were the UAS7 at Week 12 in EU and EU reference countries and the ISS7 in the US. Regardless of where a participant was from, all assessments were the same. The UAS7 score is a composite score containing both the HSS7 and the ISS7. This allowed a global assessment of the two key components of urticaria: hives and itch. […] The UAS is a validated PRO measure. […] The daily UAS scores range from 0 to 6 point/day. […] Patients were to complete the UAS using the e-diary. […] The following secondary endpoints were to be analyzed using the same approach as for the primary endpoint: • Change from baseline in UAS7 at Week 4 • Change from baseline in UAS7 at Week 12 (for US and US reference countries) • Change from baseline in ISS7 at Week 12 (except US and US reference countries) • Change from baseline in HSS7 at Week 12

CC(C)(C=C(C#N)C(=O)N1CCC[C@@H](n2nc(-c3ccc(Oc4ccccc4)cc3F)c3c(N)ncnc32)C1)N1CCN(C2COC2)CC1 [rilzabrutinib, (R)-2-[3-[4-amino-3-(2-fluoro-4-phenoxy-phenyl)pyrazolo[3,4-d]pyrimidin-1-yl]piperidine-1-carbonyl]-4-methyl-4-[4-(oxetan-3-yl)piperazin-1-yl]pent-2-enenitrile]
Non-responder n (%) (ISS7 reduction of 5 points or more) (400 mg QPM, Week 4): 20 (52.6) n (%)
OR for rilzabrutinib vs. placebo (ISS7 reduction of 5 points or more) (400 mg QPM, Week 4): 1.076
RRD (%) for rilzabrutinib vs. placebo (ISS7 reduction of 5 points or more) (400 mg QPM, Week 4): 1.7%
Responder n (%) (ISS7 reduction of 5 points or more) (400 mg QPM, Week 4): 18 (47.4) n (%)
Non-responder n (%) (ISS7 reduction of 5 points or more) (400 mg QPM, Week 6): 20 (52.6) n (%)
OR for rilzabrutinib vs. placebo (ISS7 reduction of 5 points or more) (400 mg QPM, Week 6): 1.066
RRD (%) for rilzabrutinib vs. placebo (ISS7 reduction of 5 points or more) (400 mg QPM, Week 6): 1.5%
Responder n (%) (ISS7 reduction of 5 points or more) (400 mg QPM, Week 6): 18 (47.4) n (%)
Imputed non-responder n (%) (ISS7 reduction of 5 points or more) (400 mg QPM, Week 7): 6 (15.8) n (%)
Non-responder n (%) (ISS7 reduction of 5 points or more) (400 mg QPM, Week 7): 19 (50.0) n (%)
OR for rilzabrutinib vs. placebo (ISS7 reduction of 5 points or more) (400 mg QPM, Week 7): 1.138
RRD (%) for rilzabrutinib vs. placebo (ISS7 reduction of 5 points or more) (400 mg QPM, Week 7): 3.1%
Responder n (%) (ISS7 reduction of 5 points or more) (400 mg QPM, Week 7): 19 (50.0) n (%)
Imputed non-responder n (%) (ISS7 reduction of 5 points or more) (400 mg QPM, Week 8): 7 (18.4) n (%)
Non-responder n (%) (ISS7 reduction of 5 points or more) (400 mg QPM, Week 8): 20 (52.6) n (%)
OR for rilzabrutinib vs. placebo (ISS7 reduction of 5 points or more) (400 mg QPM, Week 8): 0.836
RRD (%) for rilzabrutinib vs. placebo (ISS7 reduction of 5 points or more) (400 mg QPM, Week 8): −4.5%
Responder n (%) (ISS7 reduction of 5 points or more) (400 mg QPM, Week 8): 18 (47.4) n (%)
Imputed non-responder n (%) (ISS7 reduction of 5 points or more) (400 mg QPM, Week 9): 6 (15.8) n (%)
Non-responder n (%) (ISS7 reduction of 5 points or more) (400 mg QPM, Week 9): 18 (47.4) n (%)
OR for rilzabrutinib vs. placebo (ISS7 reduction of 5 points or more) (400 mg QPM, Week 9): 1.294
RRD (%) for rilzabrutinib vs. placebo (ISS7 reduction of 5 points or more) (400 mg QPM, Week 9): 5.8%
Responder n (%) (ISS7 reduction of 5 points or more) (400 mg QPM, Week 9): 20 (52.6) n (%)
Imputed non-responder n (%) (ISS7 reduction of 5 points or more) (400 mg QPM, Week 10): 6 (15.8) n (%)
Non-responder n (%) (ISS7 reduction of 5 points or more) (400 mg QPM, Week 10): 14 (36.8) n (%)
OR for rilzabrutinib vs. placebo (ISS7 reduction of 5 points or more) (400 mg QPM, Week 10): 1.593
Responder n (%) (ISS7 reduction of 5 points or more) (400 mg QPM, Week 10): 24 (63.2) n (%)
Imputed non-responder n (%) (ISS7 reduction of 5 points or more) (400 mg QPM, Week 11): 7 (18.4) n (%)
Non-responder n (%) (ISS7 reduction of 5 points or more) (400 mg QPM, Week 11): 17 (44.7) n (%)
OR for rilzabrutinib vs. placebo (ISS7 reduction of 5 points or more) (400 mg QPM, Week 11): 0.938
RRD (%) for rilzabrutinib vs. placebo (ISS7 reduction of 5 points or more) (400 mg QPM, Week 11): −1.5%
Responder n (%) (ISS7 reduction of 5 points or more) (400 mg QPM, Week 11): 21 (55.3) n (%)
Imputed non-responder n (%) (ISS7 reduction of 5 points or more) (400 mg QPM, Week 12): 10 (26.3) n (%)
Non-responder n (%) (ISS7 reduction of 5 points or more) (400 mg QPM, Week 12): 21 (55.3) n (%)
OR for rilzabrutinib vs. placebo (ISS7 reduction of 5 points or more) (400 mg QPM, Week 12): 0.905
RRD (%) for rilzabrutinib vs. placebo (ISS7 reduction of 5 points or more) (400 mg QPM, Week 12): −2.6%
Responder n (%) (ISS7 reduction of 5 points or more) (400 mg QPM, Week 12): 17 (44.7) n (%)
Imputed non-responder n (%) (ISS7 reduction of 5 points or more) (400 mg TID, Week 2): 0 n (%)
Non-responder n (%) (ISS7 reduction of 5 points or more) (400 mg TID, Week 2): 13 (31.7) n (%)
OR for rilzabrutinib vs. placebo (ISS7 reduction of 5 points or more) (400 mg TID, Week 2): 4.772
RRD (%) for rilzabrutinib vs. placebo (ISS7 reduction of 5 points or more) (400 mg TID, Week 2): 35.9%
Responder n (%) (ISS7 reduction of 5 points or more) (400 mg TID, Week 2): 28 (68.3) n (%)
Imputed non-responder n (%) (ISS7 reduction of 5 points or more) (400 mg TID, Week 3): 0 n (%)
Non-responder n (%) (ISS7 reduction of 5 points or more) (400 mg TID, Week 3): 12 (29.3) n (%)
OR for rilzabrutinib vs. placebo (ISS7 reduction of 5 points or more) (400 mg TID, Week 3): 4.110
RRD (%) for rilzabrutinib vs. placebo (ISS7 reduction of 5 points or more) (400 mg TID, Week 3): 37.3%
Responder n (%) (ISS7 reduction of 5 points or more) (400 mg TID, Week 3): 29 (70.7) n (%)
Imputed non-responder n (%) (ISS7 reduction of 5 points or more) (400 mg TID, Week 4): 3 (7.3) n (%)
Non-responder n (%) (ISS7 reduction of 5 points or more) (400 mg TID, Week 4): 13 (31.7) n (%)
OR for rilzabrutinib vs. placebo (ISS7 reduction of 5 points or more) (400 mg TID, Week 4): 2.155
RRD (%) for rilzabrutinib vs. placebo (ISS7 reduction of 5 points or more) (400 mg TID, Week 4): 18.8%
Responder n (%) (ISS7 reduction of 5 points or more) (400 mg TID, Week 4): 28 (68.3) n (%)
Imputed non-responder n (%) (ISS7 reduction of 5 points or more) (400 mg TID, Week 5): 3 (7.3) n (%)
Non-responder n (%) (ISS7 reduction of 5 points or more) (400 mg TID, Week 5): 11 (26.8) n (%)
OR for rilzabrutinib vs. placebo (ISS7 reduction of 5 points or more) (400 mg TID, Week 5): 2.433
RRD (%) for rilzabrutinib vs. placebo (ISS7 reduction of 5 points or more) (400 mg TID, Week 5): 20.9%
Responder n (%) (ISS7 reduction of 5 points or more) (400 mg TID, Week 5): 30 (73.2) n (%)
Imputed non-responder n (%) (ISS7 reduction of 5 points or more) (400 mg TID, Week 6): 5 (12.2) n (%)
Non-responder n (%) (ISS7 reduction of 5 points or more) (400 mg TID, Week 6): 16 (39.0) n (%)
OR for rilzabrutinib vs. placebo (ISS7 reduction of 5 points or more) (400 mg TID, Week 6): 1.574
Responder n (%) (ISS7 reduction of 5 points or more) (400 mg TID, Week 6): 25 (61.0) n (%)
Imputed non-responder n (%) (ISS7 reduction of 5 points or more) (400 mg TID, Week 7): 6 (14.6) n (%)
Non-responder n (%) (ISS7 reduction of 5 points or more) (400 mg TID, Week 7): 14 (34.1) n (%)
OR for rilzabrutinib vs. placebo (ISS7 reduction of 5 points or more) (400 mg TID, Week 7): 2.038
RRD (%) for rilzabrutinib vs. placebo (ISS7 reduction of 5 points or more) (400 mg TID, Week 7): 16.8%
Responder n (%) (ISS7 reduction of 5 points or more) (400 mg TID, Week 7): 27 (65.9) n (%)
Imputed non-responder n (%) (ISS7 reduction of 5 points or more) (400 mg TID, Week 8): 8 (19.5) n (%)
Non-responder n (%) (ISS7 reduction of 5 points or more) (400 mg TID, Week 8): 13 (31.7) n (%)
OR for rilzabrutinib vs. placebo (ISS7 reduction of 5 points or more) (400 mg TID, Week 8): 1.839
RRD (%) for rilzabrutinib vs. placebo (ISS7 reduction of 5 points or more) (400 mg TID, Week 8): 14.6%
Responder n (%) (ISS7 reduction of 5 points or more) (400 mg TID, Week 8): 28 (68.3) n (%)
Imputed non-responder n (%) (ISS7 reduction of 5 points or more) (400 mg TID, Week 9): 7 (17.1) n (%)
Non-responder n (%) (ISS7 reduction of 5 points or more) (400 mg TID, Week 9): 12 (29.3) n (%)
OR for rilzabrutinib vs. placebo (ISS7 reduction of 5 points or more) (400 mg TID, Week 9): 2.730
RRD (%) for rilzabrutinib vs. placebo (ISS7 reduction of 5 points or more) (400 mg TID, Week 9): 22.5%
Responder n (%) (ISS7 reduction of 5 points or more) (400 mg TID, Week 9): 29 (70.7) n (%)
Imputed non-responder n (%) (ISS7 reduction of 5 points or more) (400 mg TID, Week 10): 7 (17.1) n (%)
Non-responder n (%) (ISS7 reduction of 5 points or more) (400 mg TID, Week 10): 14 (34.1) n (%)
OR for rilzabrutinib vs. placebo (ISS7 reduction of 5 points or more) (400 mg TID, Week 10): 1.669
Responder n (%) (ISS7 reduction of 5 points or more) (400 mg TID, Week 10): 27 (65.9) n (%)
Imputed non-responder n (%) (ISS7 reduction of 5 points or more) (400 mg TID, Week 11): 6 (14.6) n (%)
Non-responder n (%) (ISS7 reduction of 5 points or more) (400 mg TID, Week 11): 12 (29.3) n (%)
OR for rilzabrutinib vs. placebo (ISS7 reduction of 5 points or more) (400 mg TID, Week 11): 1.699
Responder n (%) (ISS7 reduction of 5 points or more) (400 mg TID, Week 11): 29 (70.7) n (%)
ISS7 % Change difference for rilzabrutinib vs. placebo LS Mean (95% CI) (ITT, 400 mg BID, Week 1): −23.55%
ISS7 % Change from baseline LS Mean (SE) (ITT, 400 mg BID, Week 1): −34.02 (5.28) %
ISS7 Change difference for rilzabrutinib vs. placebo LS Mean (95% CI) (ITT, 400 mg BID, Week 1): −3.23
ISS7 Change from baseline LS Mean (SE) (ITT, 400 mg BID, Week 1): −5.23 (0.78)
ISS7 Post-baseline Mean (SD) (ITT, 400 mg BID, Week 1): 10.65 (5.86)
ISS7 % Change difference for rilzabrutinib vs. placebo LS Mean (95% CI) (ITT, 400 mg BID, Week 2): −16.63%
ISS7 % Change from baseline LS Mean (SE) (ITT, 400 mg BID, Week 2): −36.11 (5.26) %
